Assay results taken from patent US4198504A, “[3-(Pyridinium)-7-(naphthyiridinyl carbonylamino)acetamido]cephalosporanic acid derivatives” (Bristol-Myers Company, priority 1978, dated 1980).
Where two headings read alike, the source gives them in different places.

How the values were obtained:
S. aureus = assay: In vitro MIC, serial two-fold agar dilution, primary evaluation Gp (S. aureus, 6 strains); assay type: cell-based; conditions: CBPC = 100%, geometric mean of MICs
Protocol: (§1) Minimun inhibitory concentrations (MIC) were determined by the serial two-fold agar dilution method using Steers' apparatus on Mueller-Hinton agar plate against 31 test organisms for the primary screening and also against 64 strains of Pseudomonas aeruginosa for the secondary evaluation. The results are shown in Table 1 in terms of relative activity with respect to the standard compound CBPC (carbenicillin) which was set at 100%. In each group the calculation was based on the geometric mean of the observed MICs.
*GP = S. aureus (6 strains);

[1] = tested on: E. coli (9), Klebsiella sp. (2), Pr. mirabilis (1), Sal. enteritidis (1); assay: In vitro MIC, serial two-fold agar dilution, primary evaluation Gn-I (E. coli, Klebsiella sp., Pr. mirabilis, Sal. enteritidis); assay type: cell-based; conditions: CBPC = 100%, geometric mean of MICs
Protocol: as §1
GnI = E. coli (9), Klebsiella sp. (2), Pr. mirabilis (1), Sal.

[2] = tested on: Ent. cloacae (3), Pr. vulgaris (1), Pr. morganii (1), S. marcescen (1); assay: In vitro MIC, serial two-fold agar dilution, primary evaluation Gn-II (Ent. cloacae, Pr. vulgaris, Pr. morganii, S. marcescens); assay type: cell-based; conditions: CBPC = 100%, geometric mean of MICs
Protocol: as §1
GnII = Ent. cloacae (3), Pr. vulgaris (1), Pr. morganii (1), S. marcescen

Ps. aeruginosa = assay: In vitro MIC, serial two-fold agar dilution, primary evaluation Ps (6 strains); assay type: cell-based; conditions: CBPC = 100%, geometric mean of MICs
Protocol: as §1
Ps. = Ps. aeruginosa (6).

Pseudomonas aeruginosa = assay: In vitro MIC, serial two-fold agar dilution, secondary evaluation against Pseudomonas aeruginosa strains; assay type: cell-based; conditions: CBPC = 100%, geometric mean of MICs
Protocol: as §1

[3] = tested on: Staphylococcus aureus Smith; assay: In vivo efficacy, experimental infection in mice, intramuscular treatment, Staphylococcus aureus Smith; parameters: species or system Staphylococcus aureus (infected mice); conditions: im, 120 h, read-out: PD50 Staphylococcus aureus Smith
Protocol: (§2) The in vivo efficacy was evaluated by intramuscular treatment against three kinds of experimental infection in mice.
(§3) The in vivo tests were carried out using the following three pathogenic organisms:
Staphylococcus aureus Smith
(§4) Mice were challenged intraperitoneally with approximately a 100×LD50 dose of the pathogens in a 5% mucin suspension. The mice were treated with test compound by I.M. route immediately after the bacterial challenge.

Escherichia coli Juhl = assay: In vivo efficacy, experimental infection in mice, intramuscular treatment, Escherichia coli Juhl; parameters: species or system Escherichia coli (infected mice); conditions: im, 120 h, read-out: PD50 Escherichia coli Juhl
Protocol: as §2, §3, §4

[4] = tested on: Pseudomonas aeruginosa A9843; assay: In vivo efficacy, experimental infection in mice, intramuscular treatment, Pseudomonas aeruginosa A9843; parameters: species or system Pseudomonas aeruginosa (infected mice); conditions: A9843, im, 120 h, read-out: PD50 Pseudomonas aeruginosa A9843
Protocol: as §2, §3
Pseudomonas aeruginosa A9843
as §4

[5] = Antibiotic blood levels in mice following intramuscular administration (paper disc-agar diffusion, Escherichia coli NIHJ as assay organism); assay type: in vivo; conditions: mouse, im, I.M., 20 mg./kg.; for half-life: read-out: Blood level, Half-life; for Cmax: read-out: Blood level, Peak Concentration
Protocol: Antibiotic blood levels were determined in mice following intramuscular administration of the test compounds at 20 mg./kg. The blood samples were collected from the orbital sinuses into heparinized capillary tubes at 15, 30, 60 and 120 minutes after administration. The antibiotic concentration was determined by the paper disc-agar diffusion method using Escherichia coli NIHJ as the assay organism.

[6] = I.M., 100×LD50 challenge i.p., 5 days

Row | Structure (SMILES) | In vitro relative activity, primary evaluation Gp (6) (S. aureus; Mueller-Hinton agar) [%] | In vitro relative activity, primary evaluation Gn-I (13) ([1]; Mueller-Hinton agar) [%] | In vitro relative activity, primary evaluation Gn-II (6) ([2]; Mueller-Hinton agar) [%] | In vitro relative activity, primary evaluation Ps (6) (Ps. aeruginosa; Mueller-Hinton agar) [%] | In vitro relative activity, secondary, Pseudomonas aeruginosa (61-64) (Pseudomonas aeruginosa; 61-64 strains) [%] | ED50 [3, 6] [mg/kg] | ED50 (Escherichia coli Juhl; [6]) [mg/kg] | ED50 [4, 6] [mg/kg] | half-life [5] [min] | Cmax [5] [ng/mL] | In vitro relative activity, primary evaluation Gp (6) (S. aureus; Lot 2) [%] | In vitro relative activity, primary evaluation Gn-I (13) ([1]; Lot 2) [%] | In vitro relative activity, primary evaluation Gn-II (6) ([2]; Lot 2) [%] | In vitro relative activity, primary evaluation Ps (6) (Ps. aeruginosa; Lot 2) [%] | In vitro relative activity, secondary, Pseudomonas aeruginosa (61-64) (Pseudomonas aeruginosa; Lot 2) [%] | ED50 ([3]; Lot 2, I.M.) [mg/kg] | ED50 (Escherichia coli Juhl; Lot 2, I.M.) [mg/kg] | ED50 ([4]; Lot 2, I.M.) [mg/kg]
1 | O=C(O)Cc1cc[n+](CC2=C(C(=O)[O-])N3C(=O)C(NC(=O)[C@H](NC(=O)c4cnc5cccnc5c4O)c4ccc(O)cc4)C3SC2)cc1 (stereo partly drawn) [BB-S591, 7-[D-α-(4-Hydroxy-1,5-naphthyridine-3-carboxamido)-α-(4-hydroxyphenyl)acetamido]-3-(4-carboxymethylpyridinium)methyl-3-cephem-4-carboxylate] | 31 | 167 | 18 | 883 | 1160 | 6.15 | 6.25 | 12.5 | 54 | 11000 | – | – | – | – | – | – | – | –
2 | O=C([O-])C1=C(C[n+]2cccc(S(=O)(=O)O)c2)CSC2C(NC(=O)[C@H](NC(=O)c3cnc4cccnc4c3O)c3ccc(O)cc3)C(=O)N12 (stereo partly drawn) [BB-S587, 7-[D-α-(4-Hydroxy-1,5-naphthyridine-3-carboxamido)-α-(4-hydroxyphenyl)acetamido]-3-(3-sulfopyridinium)methyl-3-cephem-4-carboxylate] | 28 | 166 | 16 | 2378 | 3380 | – | – | 3.13 | 40 | 3000 | 56 | 87 | 19 | 3200 | 3570 | 3.7 | 2.4 | 2.2
3 | O=C([O-])C1=C(C[n+]2cccc(C(=O)O)c2)CSC2C(NC(=O)[C@H](NC(=O)c3cnc4cccnc4c3O)c3ccsc3)C(=O)N12 (stereo partly drawn) [BB-S624, 7-[D-α-(4-Hydroxy-1,5-naphthyridine-3-carboxamido)-α-(3-thienyl)acetamido]-3-(3-carboxypyridinium)methyl-3-cephem-4-carboxylate] | 79 | 47 | 10 | 328 | 413 | – | – | 20 | 50 | 9500 | – | – | – | – | – | – | – | –
4 | O=C([O-])C1=C(C[n+]2cccc(S(=O)(=O)O)c2)CSC2C(NC(=O)[C@H](NC(=O)c3cnc4cccnc4c3O)c3ccccc3)C(=O)N12 (stereo partly drawn) [BB-S607, 7-[D-α-(4-Hydroxy-1,5-naphthyridine-3-carboxamido)-α-phenylacetamido]-3-(3-sulfopyridinium)methyl-3-cephem-4-carboxylate] | 35 | 24 | 13 | 883 | 695 | 4.5 | – | 23 | 60 | 10000 | – | – | – | – | – | – | – | –
5 | O=C(O)CCc1ccc[n+](CC2=C(C(=O)[O-])N3C(=O)C(NC(=O)[C@H](NC(=O)c4cnc5cccnc5c4O)c4ccc(O)cc4)C3SC2)c1 (stereo partly shown) [BB-S619] | 31 | 88 | 18 | 725 | 1600 | – | 3.2 | 4.6 | 55 | 10000 | – | – | – | – | – | – | – | –
6 | O=C([O-])C1=C(C[n+]2cccc(CCS(=O)(=O)O)c2)CSC2C(NC(=O)[C@H](NC(=O)c3cnc4cccnc4c3O)c3ccc(O)cc3)C(=O)N12 (stereo partly drawn) [BB-S620, 7-[D-α-(4-Hydroxy-1,5-naphthyridine-3-carboxamido)-α-(4-hydroxyphenyl)acetamido]-3-[3-(2-sulfoethyl)pyridinium]methyl 3-cephem-4-carboxylate] | 28 | 60 | 14 | 800 | 1800 | – | 3.2 | 6.25 | 40 | 12500 | – | – | – | – | – | – | – | –
7 | O=C(O)C=Cc1ccc[n+](CC2=C(C(=O)[O-])N3C(=O)C(NC(=O)[C@H](NC(=O)c4cnc5cccnc5c4O)c4ccsc4)C3SC2)c1 (stereo partly drawn) [BB-S626, 7-[D-α-(4-Hydroxy-1,5-naphthyridine-3-carboxamido)-α-(3-thienyl)acetamido]-3-[3-(2-carboxyvinyl)pyridinium]methyl-3-cephem-4-carboxylate] | 45 | 41 | 11 | 231 | 460 | – | – | 30 | 42 | 8800 | – | – | – | – | – | – | – | –
8 | O=C([O-])C1=C(C[n+]2cccc(S(=O)(=O)O)c2)CSC2C(NC(=O)[C@H](NC(=O)c3cnc4cccnc4c3O)c3ccsc3)C(=O)N12 (stereo partly drawn) [BB-S625, 7-[D-α-(4-Hydroxy-1.5-naphthyridine-3-carboxamido)-α-(3-thienyl)acetamido]-3-(3-sulfopyridinium)methyl-3-cephem-4-carboxylate] | 50 | 32 | 7 | 200 | 400 | – | – | 36 | 54 | 10000 | – | – | – | – | – | – | – | –
9 | O=C(O)CSc1cc[n+](CC2=C(C(=O)[O-])N3C(=O)C(NC(=O)[C@H](NC(=O)c4cnc5cccnc5c4O)c4ccc(O)c(Cl)c4)C3SC2)cc1 (stereo partly drawn) [BB-S621, 7-[D-α-(4-Hydroxy-1,5-naphthyridine-3-carboxamido)-α-(3-chloro-4-hydroxyphenyl)acetamido]-3-[4-(carboxymethylthio)-pyridinium]methyl-3-cephem-4-carboxylate] | 20 | 121 | 18 | 800 | 1400 | – | 2.4 | 4.6 | 54 | 10000 | – | – | – | – | – | – | – | –
10 | O=C([O-])C1=C(C[n+]2cccc(S(=O)(=O)O)c2)CSC2C(NC(=O)[C@H](NC(=O)c3cnc4cccnc4c3O)c3ccc(O)c(Cl)c3)C(=O)N12 (stereo partly drawn) [BB-S601, 7-[D-α-(4-Hydroxy-1,5-naphthyridine-3-carboxamido)-α-(3-chloro-4-hydroxyphenyl)acetamido]-3-(3-sulfopyridinium)methyl-3-cephem-4-carboxylate] | 79 | 107 | 25 | 3200 | 2490 | – | – | 4.4 | 70 | 10000 | – | – | – | – | – | – | – | –
